According to patent US20260232767A1, “INTERLEUKIN-23 RECEPTOR ANTAGONIST PEPTIDES FOR USE IN THE TREATMENT OF PSORIASIS” (Janssen Pharmaceutica NV, priority 2023, published 2026):

How the values were obtained:
Type in all cases: in vivo, human
IL-22 = test: Serum IL-22 immunoassay; details: all treatment groups relative to placebo
Procedure: (§1) To evaluate psoriasis relevant systemic biomarkers (Beta-defensin 2 (BD-2), IL-17A, IL-17F, and IL-22), protein concentrations were measured in serum using validated immunoassays. The IL-17A (Catalog #03-0159-00) and IL-17F (Catalog #03-0164-00) assays used are commercially available SMC™-based high sensitivity immunoassays produced by the EMD Millipore Corporation. The manufacturer's protocols were followed and analyzed on the Erenna® instrument platform except for the use of 11 μL Elution Buffer B. While the IL-22 assay is also based on the SMC™ platform and run on the Erenna instrument, the assay was developed internally as a coated plate-based assay. The development and optimization of the BD-2 assay was done on the Meso Scale Discovery on the electrochemiluminescence-based platform, a division of Meso Scale Diagnostics LLC (MSD). For all assays, concentration adjustments were made to values measuring below empirically defined LLOQ or empirically defined ULOQ values. Assay QC verified performance of generated standard curves (average concentration recovery & CV of technical replicates) and control samples (inter-assay plate agreement (CV)).
(§2) Serum levels of psoriasis disease biomarkers BD-2, IL-22, IL-17A, and IL-17F relative to baseline were analyzed in patients who received placebo or the compound of Formula (I) and compared to clinical response. […]

IL-17F = test: Serum IL-17F immunoassay; details: all treatment groups relative to placebo
Procedure: as §1, §2

[1] = test system: subjects with moderate-to-severe plaque psoriasis; test: Elevated liver function tests; details: through Week 56
[2] = test system: subjects with moderate-to-severe plaque psoriasis; test: Lipid panel laboratory values; details: Week 52
[3] = 25 mg BID, at least 1 post-baseline value
[4] = 25 mg BID, baseline ≤ULN and at least 1 post-baseline value
[5] = 25 mg QD, at least 1 post-baseline value
[6] = 25 mg QD, baseline ≤ULN and at least 1 post-baseline value
[7] = 50 mg QD, at least 1 post-baseline value
[8] = 50 mg QD, baseline ≤ULN and at least 1 post-baseline value
[9] = 100 mg BID, at least 1 post-baseline value
[10] = 100 mg BID, baseline ≤ULN and at least 1 post-baseline value
[11] = 100 mg QD, at least 1 post-baseline value
[12] = 100 mg QD, baseline ≤ULN and at least 1 post-baseline value
[13] = Combined, at least 1 post-baseline value
[14] = Combined, baseline ≤ULN and at least 1 post-baseline value
[15] = Placebo → 100 mg QD, at least 1 post-baseline value
[16] = Placebo → 100 mg QD, baseline ≤ULN and at least 1 post-baseline value

`CC(=O)NCCCC[C@@H]1NC(=O)[C@H](Cc2c[nH]c3c(C)cccc23)NC(=O)[C@H]([C@@H](C)O)NC(=O)[C@H](CC(N)=O)NC(=O)[C@@H](NC(C)=O)C(C)(C)SSC(C)(C)[C@@H](C(=O)N[C@@H](Cc2ccc(OCCN)cc2)C(=O)N[C@@H](Cc2ccc3ccccc3c2)C(=O)NC2(C(=O)N[C@@H](CCC(=O)O)C(=O)N[C@@H](CC(N)=O)C(=O)N[C@@H](Cc3cccnc3)C(=O)N(C)CC(N)=O)CCOCC2)NC1=O` [IL-23 receptor antagonist peptide, Ac-[Pen]*-N-T-[W(7-Me)]-[Lys(Ac)]-[Pen]*-Phe[4-(2-aminoethoxy)]-[2-Nal]-[THP]-E-N-[3-Pal]-Sarc-NH2 (*[Pen]-[Pen]* formdisulfidebond)] was tested, and the IL-22 serum levels (IL-22) was “statistically significant reduction”, the IL-17F serum levels (IL-17F) was “Statistically significant reductions” and the “Subjects with Total Bilirubin >2 × ULN and either AST or ALT ≥3 × ULN at the same timepoint” value (“Subjects … at the same timepoint” below) ([1]; 25 mg BID) was 0. For the same molecule, the “Subjects with ALT ≥5 × ULN” value [1, 3] was 0, the “Subjects with ALT ≥10 × ULN” value [1, 3] was 0 and the “Subjects with ALT ≥20 × ULN” value [1, 3] was 0. The “Subjects with AST ≥5 × ULN” value [1, 3] was 0, the “Subjects with AST ≥10 × ULN” value [1, 3] was 0 and the “Subjects with AST ≥20 × ULN” value [1, 3] was 0. The “Subjects with ALT ≥5 × ULN” value [1, 4] was 0, the “Subjects with ALT ≥10 × ULN” value [1, 4] was 0 and the “Subjects with ALT ≥20 × ULN” value [1, 4] was 0. The “Subjects with AST ≥5 × ULN” value [1, 4] was 0, the “Subjects with AST ≥10 × ULN” value [1, 4] was 0 and the “Subjects with AST ≥20 × ULN” value [1, 4] was 0. The “Subjects … at the same timepoint” value ([1]; 25 mg QD) was 0, the “Subjects with ALT >1 × ULN” value [1, 5] was 7 and the “Subjects with ALT ≥10 × ULN” value [1, 5] was 0. For the same molecule, the “Subjects with ALT ≥20 × ULN” value [1, 5] was 0, the “Subjects with AST ≥5 × ULN” value [1, 5] was 0 and the “Subjects with AST ≥10 × ULN” value [1, 5] was 0. For the same molecule, the “Subjects with AST ≥20 × ULN” value [1, 5] was 0, the “Subjects with ALT ≥10 × ULN” value [1, 6] was 0 and the “Subjects with ALT ≥20 × ULN” value [1, 6] was 0. The “Subjects with AST ≥5 × ULN” value [1, 6] was 0, the “Subjects with AST ≥10 × ULN” value [1, 6] was 0 and the “Subjects with AST ≥20 × ULN” value [1, 6] was 0. The “Subjects … at the same timepoint” value ([1]; 50 mg QD) was 0, the “Subjects with ALT ≥3 × ULN” value [1, 7] was 0 and the “Subjects with ALT ≥5 × ULN” value [1, 7] was 0. The “Subjects with ALT ≥10 × ULN” value [1, 7] was 0, the “Subjects with ALT ≥20 × ULN” value [1, 7] was 0 and the “Subjects with AST ≥3 × ULN” value [1, 7] was 0. For the same molecule, the “Subjects with AST ≥5 × ULN” value [1, 7] was 0, the “Subjects with AST ≥10 × ULN” value [1, 7] was 0 and the “Subjects with AST ≥20 × ULN” value [1, 7] was 0. For the same molecule, the “Subjects with ALT ≥3 × ULN” value [1, 8] was 0, the “Subjects with ALT ≥5 × ULN” value [1, 8] was 0 and the “Subjects with ALT ≥10 × ULN” value [1, 8] was 0. For the same molecule, the “Subjects with ALT ≥20 × ULN” value [1, 8] was 0, the “Subjects with AST ≥3 × ULN” value [1, 8] was 0 and the “Subjects with AST ≥5 × ULN” value [1, 8] was 0. For the same molecule, the “Subjects with AST ≥10 × ULN” value [1, 8] was 0, the “Subjects with AST ≥20 × ULN” value [1, 8] was 0 and the “Subjects … at the same timepoint” value ([1]; 100 mg BID) was 0. The “Subjects with ALT ≥3 × ULN” value [1, 9] was 5, the “Subjects with ALT ≥5 × ULN” value [1, 9] was 0 and the “Subjects with ALT ≥10 × ULN” value [1, 9] was 0. For the same molecule, the “Subjects with ALT ≥20 × ULN” value [1, 9] was 0, the “Subjects with AST ≥10 × ULN” value [1, 9] was 0 and the “Subjects with AST ≥20 × ULN” value [1, 9] was 0. The “Subjects with ALT ≥5 × ULN” value [1, 10] was 0, the “Subjects with ALT ≥10 × ULN” value [1, 10] was 0 and the “Subjects with ALT ≥20 × ULN” value [1, 10] was 0. The “Subjects with AST >1 × ULN” value [1, 10] was 4, the “Subjects with AST ≥10 × ULN” value [1, 10] was 0 and the “Subjects with AST ≥20 × ULN” value [1, 10] was 0. The “Subjects … at the same timepoint” value ([1]; 100 mg QD) was 0, the “Subjects with ALT ≥5 × ULN” value [1, 11] was 0 and the “Subjects with ALT ≥10 × ULN” value [1, 11] was 0. For the same molecule, the “Subjects with ALT ≥20 × ULN” value [1, 11] was 0, the “Subjects with AST >1 × ULN” value [1, 11] was 9 and the “Subjects with AST ≥5 × ULN” value [1, 11] was 0. The “Subjects with AST ≥10 × ULN” value [1, 11] was 0, the “Subjects with AST ≥20 × ULN” value [1, 11] was 0 and the “Subjects with ALT ≥5 × ULN” value [1, 12] was 0. The “Subjects with ALT ≥10 × ULN” value [1, 12] was 0, the “Subjects with ALT ≥20 × ULN” value [1, 12] was 0 and the “Subjects with AST ≥5 × ULN” value [1, 12] was 0. For the same molecule, the “Subjects with AST ≥10 × ULN” value [1, 12] was 0, the “Subjects with AST ≥20 × ULN” value [1, 12] was 0 and the “Subjects … at the same timepoint” value ([1]; Combined) was 0. The “Subjects with ALT ≥10 × ULN” value [1, 13] was 0, the “Subjects with ALT ≥20 × ULN” value [1, 13] was 0 and the “Subjects with AST ≥10 × ULN” value [1, 13] was 0. For the same molecule, the “Subjects with AST ≥20 × ULN” value [1, 13] was 0, the “Subjects with ALT ≥10 × ULN” value [1, 14] was 0 and the “Subjects with ALT ≥20 × ULN” value [1, 14] was 0. The “Subjects with AST ≥10 × ULN” value [1, 14] was 0, the “Subjects with AST ≥20 × ULN” value [1, 14] was 0 and the “Subjects … at the same timepoint” value ([1]; Placebo → 100 mg QD) was 0. For the same molecule, the “Subjects with ALT ≥5 × ULN” value [1, 15] was 0, the “Subjects with ALT ≥10 × ULN” value [1, 15] was 0 and the “Subjects with ALT ≥20 × ULN” value [1, 15] was 0. For the same molecule, the “Subjects with AST ≥10 × ULN” value [1, 15] was 0, the “Subjects with AST ≥20 × ULN” value [1, 15] was 0 and the “Subjects with ALT ≥5 × ULN” value [1, 16] was 0. For the same molecule, the “Subjects with ALT ≥10 × ULN” value [1, 16] was 0, the “Subjects with ALT ≥20 × ULN” value [1, 16] was 0 and the “Subjects with AST ≥10 × ULN” value [1, 16] was 0. The “Subjects with AST ≥20 × ULN” value [1, 16] was 0, the “HDL Cholesterol change from baseline, Mean” value (from here on “HDL Cholesterol change … Mean”) ([2]; 25 mg BID) was 0.011 mmol/L and the “HDL Cholesterol change from baseline, Median” value ([2]; 25 mg BID) was -0.010 mmol/L. The “LDL Cholesterol change from baseline, Mean” value (“LDL Cholesterol change … Mean” below) ([2]; 25 mg BID) was -0.155 mmol/L, the “LDL Cholesterol change from baseline, Median” value ([2]; 25 mg BID) was -0.105 mmol/L and the “Triglycerides change from baseline, Mean” value ([2]; 25 mg BID) was 0.144 mmol/L. The “Triglycerides change from baseline, Median” value (shortened to “Triglycerides change … Median”) ([2]; 25 mg BID) was 0.040 mmol/L, the “HDL Cholesterol change … Mean” value ([2]; 25 mg QD) was -0.034 mmol/L and the “HDL Cholesterol change from baseline, Median” value ([2]; 25 mg QD) was -0.023 mmol/L. The “LDL Cholesterol change … Mean” value ([2]; 25 mg QD) was 0.069 mmol/L, the “LDL Cholesterol change from baseline, Median” value ([2]; 25 mg QD) was 0.132 mmol/L and the “Triglycerides change from baseline, Mean” value ([2]; 25 mg QD) was 0.034 mmol/L. For the same molecule, the “Triglycerides change … Median” value ([2]; 25 mg QD) was 0.040 mmol/L, the “HDL Cholesterol change … Mean” value ([2]; 50 mg QD) was -0.009 mmol/L and the “HDL Cholesterol change from baseline, Median” value ([2]; 50 mg QD) was 0.014 mmol/L. For the same molecule, the “LDL Cholesterol change … Mean” value ([2]; 50 mg QD) was -0.146 mmol/L, the “LDL Cholesterol change from baseline, Median” value ([2]; 50 mg QD) was -0.095 mmol/L and the “Triglycerides change from baseline, Mean” value ([2]; 50 mg QD) was 0.156 mmol/L. For the same molecule, the “Triglycerides change … Median” value ([2]; 50 mg QD) was 0.067 mmol/L, the “HDL Cholesterol change … Mean” value ([2]; 100 mg BID) was -0.027 mmol/L and the “HDL Cholesterol change from baseline, Median” value ([2]; 100 mg BID) was -0.020 mmol/L. For the same molecule, the “LDL Cholesterol change … Mean” value ([2]; 100 mg BID) was -0.056 mmol/L, the “LDL Cholesterol change from baseline, Median” value ([2]; 100 mg BID) was -0.110 mmol/L and the “Triglycerides change from baseline, Mean” value ([2]; 100 mg BID) was 0.137 mmol/L. For the same molecule, the “Triglycerides change … Median” value ([2]; 100 mg BID) was 0.010 mmol/L, the “HDL Cholesterol change … Mean” value ([2]; 100 mg QD) was -0.023 mmol/L and the “HDL Cholesterol change from baseline, Median” value ([2]; 100 mg QD) was -0.027 mmol/L. For the same molecule, the “LDL Cholesterol change … Mean” value ([2]; 100 mg QD) was -0.147 mmol/L, the “LDL Cholesterol change from baseline, Median” value ([2]; 100 mg QD) was -0.060 mmol/L and the “Triglycerides change from baseline, Mean” value ([2]; 100 mg QD) was 0.024 mmol/L. For the same molecule, the “Triglycerides change … Median” value ([2]; 100 mg QD) was -0.005 mmol/L, the “HDL Cholesterol change … Mean” value ([2]; Combined) was -0.012 mmol/L and the “HDL Cholesterol change from baseline, Median” value ([2]; Combined) was -0.020 mmol/L. For the same molecule, the “LDL Cholesterol change … Mean” value ([2]; Combined) was -0.098 mmol/L, the “LDL Cholesterol change from baseline, Median” value ([2]; Combined) was -0.105 mmol/L and the “Triglycerides change from baseline, Mean” value ([2]; Combined) was 0.118 mmol/L. The “Triglycerides change … Median” value ([2]; Combined) was 0.020 mmol/L, the “HDL Cholesterol change … Mean” value ([2]; Placebo → 100 mg QD) was 0.013 mmol/L and the “HDL Cholesterol change from baseline, Median” value ([2]; Placebo → 100 mg QD) was -0.035 mmol/L. For the same molecule, the “LDL Cholesterol change … Mean” value ([2]; Placebo → 100 mg QD) was -0.138 mmol/L, the “LDL Cholesterol change from baseline, Median” value ([2]; Placebo → 100 mg QD) was -0.212 mmol/L and the “Triglycerides change from baseline, Mean” value ([2]; Placebo → 100 mg QD) was 0.207 mmol/L. For the same molecule, the “Triglycerides change … Median” value ([2]; Placebo → 100 mg QD) was 0.035 mmol/L.
